Assay results as given in ChEMBL document CHEMBL1201862, “PubChem BioAssay data set” (2004).
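1) Cells in 96-well plates. 2) Compound, 48 h, 5 concentrations. 3) Linear interpolation between surrounding doses. 4) Unreached endpoint = highest concentration. Here, GI50 denotes the concentration required for 50% inhibition of growth.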 Activity calls are given as the source filed them. Cut-off read from the data, not from the text of the source: active = GI50 up to about 1.1 µM and inactive = higher.

Key:
Assay in all cases: DTP human tumour cell line panel, 48 h
A549 = system: A549
UO-31 = system: UO-31
Malme-3M = system: Malme-3M
M14 = system: M14
RXF 631 = system: RXF 631
OVCAR-4 = system: OVCAR-4
HT-29 = system: HT-29
MOLT-4 = system: MOLT-4
OVCAR-8 = system: OVCAR-8
EKVX = system: EKVX
RXF 393 = system: RXF 393
HCT-116 = system: HCT-116
SNB-75 = system: SNB-75
UACC-257 = system: UACC-257
DLD-1 = system: DLD-1
SNB-78 = system: SNB-78
ACHN = system: ACHN
DMS-273 = system: DMS-273
HCT-15 = system: HCT-15
SF-295 = system: SF-295
DMS-114 = system: DMS-114
SR = system: SR
M19-MEL = system: M19-MEL
CAKI-1 = system: CAKI-1
OVCAR-3 = system: OVCAR-3
CCRF-CEM = system: CCRF-CEM
OVCAR-5 = system: OVCAR-5
SN12C = system: SN12C
SW-620 = system: SW-620
RPMI-8226 = system: RPMI-8226
KM12 = system: KM12
HOP-92 = system: HOP-92
NCI-H226 = system: NCI-H226
NCI-H23 = system: NCI-H23
NCI-H460 = system: NCI-H460
SK-MEL-5 = system: SK-MEL-5
UACC-62 = system: UACC-62
HL-60 = system: HL-60
KM-20L2 = system: KM-20L2
LOX IMVI = system: LOX IMVI
786-0 = system: 786-0
TK-10 = system: TK-10
SK-MEL-28 = system: SK-MEL-28
SF-539 = system: SF-539
SK-MEL-2 = system: SK-MEL-2
LXFL 529 = system: LXFL 529
XF498 = system: XF498
K562 = system: K562
HCC 2998 = system: HCC 2998
HOP-18 = system: HOP-18
U-251 = system: U-251
A498 = system: A498
SNB-19 = system: SNB-19

c1ccc(-c2nnc3nn4c(-c5ccccc5)cnnc4c3c2-c2ccccc2)cc1
GI50 (A549): 50.8 µM (inactive) | GI50 (UO-31): 23.2 µM (inactive) | GI50 (Malme-3M): 42.5 µM (inactive) | GI50 (M14): > 100 µM (inactive) | GI50 (RXF 631): 18.7 µM (inactive) | GI50 (OVCAR-4): 12.9 µM (inactive) | GI50 (HT-29): 95.3 µM (inactive) | GI50 (MOLT-4): > 100 µM (inactive) | GI50 (OVCAR-8): 76.4 µM (inactive) | GI50 (EKVX): 19.7 µM (inactive) | GI50 (RXF 393): 14.7 µM (inactive) | GI50 (HCT-116): 63.4 µM (inactive) | GI50 (SNB-75): 34.4 µM (inactive) | GI50 (UACC-257): 96.8 µM (inactive) | GI50 (DLD-1): 95.1 µM (inactive) | GI50 (SNB-78): 31.7 µM (inactive) | GI50 (ACHN): 55.6 µM (inactive) | GI50 (DMS-273): > 100 µM (inactive) | GI50 (HCT-15): > 100 µM | GI50 (SF-295): 74 µM (inactive) | GI50 (DMS-114): 35.6 µM (inactive) | GI50 (SR): > 100 µM (inactive) | GI50 (M19-MEL): 88.7 µM (inactive) | GI50 (CAKI-1): 23.7 µM (inactive) | GI50 (OVCAR-3): 26.4 µM (inactive) | GI50 (CCRF-CEM): > 100 µM (inactive) | GI50 (OVCAR-5): > 100 µM (inactive) | GI50 (SN12C): > 100 µM (inactive) | GI50 (SW-620): > 100 µM (inactive) | GI50 (RPMI-8226): > 100 µM (inactive) | GI50 (KM12): > 100 µM (inactive) | GI50 (HOP-92): 59.8 µM (inactive) | GI50 (NCI-H226): > 100 µM (inactive) | GI50 (NCI-H23): > 100 µM (inactive) | GI50 (NCI-H460): 75.7 µM (inactive) | GI50 (SK-MEL-5): 67.1 µM (inactive) | GI50 (UACC-62): 32.1 µM (inactive) | GI50 (HL-60): 3.12 µM (inactive) | GI50 (KM-20L2): 95.3 µM (inactive) | GI50 (LOX IMVI): > 100 µM (inactive) | GI50 (786-0): 0.0794 µM (active) | GI50 (TK-10): 19.2 µM (inactive) | GI50 (SK-MEL-28): 64 µM (inactive) | GI50 (SF-539): 26.3 µM (inactive) | GI50 (SK-MEL-2): > 100 µM (inactive) | GI50 (LXFL 529): 42.7 µM (inactive) | GI50 (XF498): 27.5 µM (inactive) | GI50 (K562): 75 µM (inactive) | GI50 (HCC 2998): 48.2 µM (inactive) | GI50 (HOP-18): 53 µM (inactive) | GI50 (U-251): 32.6 µM (inactive) | GI50 (A498): > 100 µM (inactive) | GI50 (SNB-19): 25.2 µM (inactive)
